Measured values published in paper PMC12298648, “An Evaluation of the Cytotoxicity and Safety Profile of Usnic Acid for a Broad Panel of Human Cancers and Normal Cells with Respect to Its Enantiospecificity” (Molecules, 2025).
In brackets after ≈: the same amount, converted by molar mass. Like-named read-outs stand apart in the source and are kept apart here.

Assays:
FemX = test system: FemX; parameters: method as in PMID 23203090; conditions: 72 h; cited from earlier work
518A2 = test system: 518A2; parameters: method as in PMID 27936296; conditions: 518A2, 72 h, cited from earlier work
CCD 841 CoN = test: MTT viability assay, normal colon epithelial cells; type: cell-based, human; conditions: Homo sapiens, CCD-841CoN; normal colon epithelial cells, 24 h, reference drug; read-out: IC50
Excerpt: (§1) Cell lines of different origins were used in the study and grouped as follows: prostate panel (human prostate carcinomas: DU145, derived from metastatic site: brain; grade IV PC3, derived from metastatic site: bone; LNCaP, derived from the metastatic site: lymph node; prostate epithelial, PNT2), colon panel (colorectal adenocarcinomas: HT29, originating from a primary tumor; Duke’s type C DLD-1, with the potential to lymph node metastasis; highly metastatic HCT116; colon epithelial cells CCD 841 CoN), thyroid panel (follicular thyroid carcinoma FTC133, anaplastic thyroid carcinoma 8505C, papillary thyroid carcinoma TPC-1, normal thyroid follicular epithelial Nthy-ori 3–1), breast panel (ER-positive breast adenocarcinoma MCF7, ER-negative breast adenocarcinoma MDA-MB-231, breast epithelial MCF10A), brain panel (neuroblastoma SH-SY5Y, glioblastoma U-87 MG, murine astrocytes C8D1A). All cell lines were purchased from Merck (Darmstadt, Germany).
(§2) Cells were grown under standard conditions (37 °C, 5% CO2) and culture media (DMEM/F12 for PNT2, PC3, FTC133, 8505 C, MDA-MB-231, TPC-1; DMEM Low Glucose for DU145; DMEM High Glucose for HCT116, DLD-1, SH-SY5Y, U87MG, C8D1A; MEM with NEAA for MCF7; MEM for CCD 841 CoN; McCoy’s for HT29; RPMI1640 with sodium pyruvate for LNCaP; DMEM/F12 with 20 ng/mL epidermal growth factor (EGF), 10 μg/mL insulin, 0.5 μg/mL hydrocortisone, 100 ng/mL cholera toxin) for MCF10A), supplemented with 10% fetal bovine serum (FBS) or 5% donor horse serum for MCF10A, and 1% antibiotics solution (10,000 U penicillin and 10 mg streptomycin/mL). The tested substances were prepared as 10 mg/mL stock solutions in DMSO and further diluted in the culture media to the working concentrations. Cells were treated with UA enantiomers at the concentration range of 0–50 µg/mL. The influence of DMSO on cell viability was also examined, with the final concentration […], and no toxic effect was noted.
(§3) The cells were seeded onto 96-well plates at a density of 1.5 × 10^4 cells/well. After 24 h UA enantiomers were added. Cell viability was determined after 24, 48, and 72 h by the MTT assay, as described previously. Doxorubicin was used as a reference cytostatic drug. All analyses were performed in triplicate; cell viability was expressed as % of control, untreated cells (mean ± SD), and IC50 values (concentration at which cell viability is inhibited by 50%), if possible.

PNT2 = test: MTT viability assay, normal prostate epithelial cells; type: cell-based, human; conditions: Homo sapiens, PNT2; normal prostate epithelial cells, reference drug, time not given; read-out: IC50
Excerpt: as §1, §2, §3

C8D1A = test: MTT viability assay, normal astrocytes C8D1A; type: cell-based, murine; conditions: Mus musculus, C8-D1A; murine astrocytes, 24 h, reference drug
Excerpt: as §1, §2, §3

WM793 cells = test system: WM793 cells; parameters: method as in PMID 34577645; conditions: WM793, reference drug, time not given; cited from earlier work
HepG2 cells = test system: HepG2 cells; parameters: method as in PMID 40368021; conditions: HepG2, 24 h, reference drug; cited from earlier work
[1] = test system: human non-cancerous skin cells; parameters: method as in PMID 34500657; conditions: 24 h, reference drug; cited from earlier work

In the case of `CC(=O)c1c(O)c(C)c(O)c2c1OC1=CC(=O)C(C(C)=O)C(=O)C12C` (stereo not drawn) [UA, Usnic acid], the IC50 (FemX) is given as 12.72 µg/mL (≈ 36.9 µM), the IC50 (518A2; recalculated from µM by the authors) is given as “≈ 2 µg/mL” and the IC50 (518A2; read-out: IC50) is given as 5.4 µM.

`COc1cccc2c1C(=O)c1c(O)c3c(c(O)c1C2=O)C[C@@](O)(C(=O)CO)C[C@@H]3O[C@H]1C[C@H](N)[C@H](O)[C@H](C)O1` [doxorubicin, reference compound] gave an IC50 (CCD 841 CoN) of 2.25 µg/mL (≈ 4.14 µM), an IC50 (PNT2) of 1.4 µg/mL (≈ 2.58 µM) and an IC50 (C8D1A) of 2.25 µg/mL (≈ 4.14 µM). For the same molecule, the IC50 (WM793 cells) was > 100 µg/mL, the “IC50 (hepatotoxicity)” value (HepG2 cells) was 1.03 µg/mL (≈ 1.9 µM) and the IC50 [1] was 4.7 µg/mL (≈ 8.65 µM).
